Results published in patent US10392368B2, “Pyrazolo and triazolo bicyclic compounds as JAK kinase inhibitors” (THERAVANCE BIOPHARMA R&D IP, LLC, priority 2017, dated 2019).

How the values were obtained:
JAK3 = target: T1, JAK3 (Homo sapiens, UniProt P52333); experiment: Biochemical JAK3 kinase assay (LanthaScreen); parameters: GST; purchased Life Technologies; details: for Ki: read-out: JAK 3 (pKi) (converted)
T1 sequence (P52333 1-1124): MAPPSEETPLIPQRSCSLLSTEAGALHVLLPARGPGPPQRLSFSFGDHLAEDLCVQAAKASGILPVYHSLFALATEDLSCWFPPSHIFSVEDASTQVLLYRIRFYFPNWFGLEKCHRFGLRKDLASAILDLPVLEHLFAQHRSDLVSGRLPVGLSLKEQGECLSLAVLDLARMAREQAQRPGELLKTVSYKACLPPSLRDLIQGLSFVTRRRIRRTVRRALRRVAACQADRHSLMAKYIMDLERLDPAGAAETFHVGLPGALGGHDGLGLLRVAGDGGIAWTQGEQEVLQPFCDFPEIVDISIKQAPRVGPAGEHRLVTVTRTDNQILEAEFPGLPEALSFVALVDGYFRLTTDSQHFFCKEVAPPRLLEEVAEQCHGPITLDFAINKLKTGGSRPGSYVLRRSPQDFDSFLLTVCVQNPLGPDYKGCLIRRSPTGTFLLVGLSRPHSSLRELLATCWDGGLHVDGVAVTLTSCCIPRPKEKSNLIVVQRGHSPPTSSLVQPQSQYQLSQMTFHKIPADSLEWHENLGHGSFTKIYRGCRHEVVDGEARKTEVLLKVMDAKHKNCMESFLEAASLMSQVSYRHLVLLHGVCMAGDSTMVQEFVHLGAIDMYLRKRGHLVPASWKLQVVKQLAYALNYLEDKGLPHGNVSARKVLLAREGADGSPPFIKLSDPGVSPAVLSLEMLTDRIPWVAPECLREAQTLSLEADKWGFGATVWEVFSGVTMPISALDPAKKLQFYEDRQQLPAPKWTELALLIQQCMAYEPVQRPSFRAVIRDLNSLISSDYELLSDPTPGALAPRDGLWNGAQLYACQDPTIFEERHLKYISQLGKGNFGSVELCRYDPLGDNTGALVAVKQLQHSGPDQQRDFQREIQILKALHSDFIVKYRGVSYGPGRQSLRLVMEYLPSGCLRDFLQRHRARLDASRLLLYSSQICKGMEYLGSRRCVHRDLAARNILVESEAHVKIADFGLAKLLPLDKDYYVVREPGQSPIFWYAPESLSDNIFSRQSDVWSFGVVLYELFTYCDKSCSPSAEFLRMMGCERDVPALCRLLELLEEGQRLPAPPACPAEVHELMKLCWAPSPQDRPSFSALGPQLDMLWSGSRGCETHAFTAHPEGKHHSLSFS
Method in brief: (§1)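 TR-FRET readout (520/495 nm) using Tb-labelled pTyr701 antibody after EDTA stop, following 1 h ATP-started phosphorylation of GFP-STAT1 by recombinant GST-JAK. Compounds preincubated 1 h with enzyme and substrate; pIC50 from 4-parameter fit, Cheng-Prusoff gives pKi.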

JAK2 = target: T2, JAK2 (Homo sapiens, UniProt O60674); experiment: Biochemical JAK2 kinase assay (LanthaScreen); details: for Ki: read-out: JAK 2 (pKi) (converted)
T2 construct: GST; purchased Life Technologies
T2 sequence (O60674 whole entry): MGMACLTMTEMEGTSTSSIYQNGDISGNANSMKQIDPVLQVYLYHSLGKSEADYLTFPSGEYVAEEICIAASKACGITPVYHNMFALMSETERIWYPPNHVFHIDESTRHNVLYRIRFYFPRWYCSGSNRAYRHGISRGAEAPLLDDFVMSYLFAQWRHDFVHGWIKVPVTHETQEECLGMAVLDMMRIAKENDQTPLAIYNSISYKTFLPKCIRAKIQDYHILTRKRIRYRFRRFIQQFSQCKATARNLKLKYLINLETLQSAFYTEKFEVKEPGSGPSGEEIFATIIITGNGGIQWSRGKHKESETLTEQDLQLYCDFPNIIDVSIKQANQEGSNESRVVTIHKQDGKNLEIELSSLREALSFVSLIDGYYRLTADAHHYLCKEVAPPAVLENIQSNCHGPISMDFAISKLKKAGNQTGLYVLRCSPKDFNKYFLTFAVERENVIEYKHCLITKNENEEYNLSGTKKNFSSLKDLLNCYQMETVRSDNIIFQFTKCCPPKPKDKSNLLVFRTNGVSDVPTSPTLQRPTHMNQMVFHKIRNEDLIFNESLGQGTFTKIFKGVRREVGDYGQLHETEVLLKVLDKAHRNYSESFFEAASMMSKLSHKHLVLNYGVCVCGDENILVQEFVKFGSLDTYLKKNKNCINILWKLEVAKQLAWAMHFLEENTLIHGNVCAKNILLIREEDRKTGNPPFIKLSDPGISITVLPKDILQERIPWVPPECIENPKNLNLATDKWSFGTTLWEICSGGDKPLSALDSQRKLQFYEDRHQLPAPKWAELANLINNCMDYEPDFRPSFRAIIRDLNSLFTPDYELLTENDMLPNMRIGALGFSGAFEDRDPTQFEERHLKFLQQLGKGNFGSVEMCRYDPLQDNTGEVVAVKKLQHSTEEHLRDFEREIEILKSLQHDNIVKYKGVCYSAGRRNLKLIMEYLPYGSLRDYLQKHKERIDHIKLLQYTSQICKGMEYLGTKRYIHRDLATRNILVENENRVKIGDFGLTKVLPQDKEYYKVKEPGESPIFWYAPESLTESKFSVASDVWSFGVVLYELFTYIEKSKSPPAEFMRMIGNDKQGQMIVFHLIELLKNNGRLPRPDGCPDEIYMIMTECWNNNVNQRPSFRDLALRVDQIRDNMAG
Method in brief: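 GST-tagged recombinant JAK2 pre-incubated 1 h at ambient temperature with compound and GFP-STAT1 peptide in HEPES pH 7.5/MgCl2 buffer, then ATP added for a 1 h reaction with 1% DMSO. TR-FRET read after EDTA and Tb-anti-pSTAT1 (pTyr701) addition; IC50 from 4-parameter fit, converted to pKi by Cheng-Prusoff.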

JAK1 = target: T3, JAK1 (Homo sapiens, UniProt P23458); experiment: Biochemical JAK1 kinase assay (LanthaScreen); details: for Ki: read-out: JAK 1 (pKi) (converted)
T3 construct: GST; purchased Life Technologies
T3 sequence (P23458 whole entry): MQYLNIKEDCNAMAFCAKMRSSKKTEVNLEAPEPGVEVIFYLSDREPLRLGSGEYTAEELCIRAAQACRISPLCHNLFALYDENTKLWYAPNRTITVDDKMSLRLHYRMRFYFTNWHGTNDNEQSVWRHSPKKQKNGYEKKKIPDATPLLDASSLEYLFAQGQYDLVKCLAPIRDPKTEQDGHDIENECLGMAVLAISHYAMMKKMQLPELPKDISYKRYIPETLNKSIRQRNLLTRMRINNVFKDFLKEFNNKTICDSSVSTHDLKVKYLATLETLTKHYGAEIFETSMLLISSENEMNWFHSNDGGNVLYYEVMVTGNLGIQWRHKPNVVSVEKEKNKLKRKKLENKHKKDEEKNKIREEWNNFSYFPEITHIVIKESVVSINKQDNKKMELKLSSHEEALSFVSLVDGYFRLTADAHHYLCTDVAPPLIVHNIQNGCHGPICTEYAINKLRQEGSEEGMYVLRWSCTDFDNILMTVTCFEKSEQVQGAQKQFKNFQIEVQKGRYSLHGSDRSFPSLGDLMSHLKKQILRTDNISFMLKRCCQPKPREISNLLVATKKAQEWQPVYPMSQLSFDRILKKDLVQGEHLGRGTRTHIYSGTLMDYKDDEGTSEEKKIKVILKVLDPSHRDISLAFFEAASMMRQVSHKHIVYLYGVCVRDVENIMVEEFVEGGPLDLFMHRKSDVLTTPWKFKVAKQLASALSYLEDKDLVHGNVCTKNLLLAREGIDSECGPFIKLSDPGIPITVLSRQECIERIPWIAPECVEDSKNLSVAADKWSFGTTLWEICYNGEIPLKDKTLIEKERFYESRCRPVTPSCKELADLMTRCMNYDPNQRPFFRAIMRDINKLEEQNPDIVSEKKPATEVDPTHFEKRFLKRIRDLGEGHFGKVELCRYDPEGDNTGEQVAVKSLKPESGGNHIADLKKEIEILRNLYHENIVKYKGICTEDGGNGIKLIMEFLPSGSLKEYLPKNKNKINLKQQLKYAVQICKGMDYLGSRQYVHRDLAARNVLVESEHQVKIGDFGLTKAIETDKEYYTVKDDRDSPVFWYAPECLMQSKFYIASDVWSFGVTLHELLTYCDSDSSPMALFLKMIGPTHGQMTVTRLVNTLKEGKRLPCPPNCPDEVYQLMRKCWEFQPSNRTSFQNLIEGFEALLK
Method in brief: as §1

Tyk2 = target: T4, Tyk2 (Homo sapiens, UniProt P29597); experiment: Biochemical Tyk2 kinase assay (LanthaScreen); details: for Ki: read-out: Tyk 2 (pKi) (converted)
T4 construct: GST; purchased Life Technologies
T4 sequence (P29597 whole entry): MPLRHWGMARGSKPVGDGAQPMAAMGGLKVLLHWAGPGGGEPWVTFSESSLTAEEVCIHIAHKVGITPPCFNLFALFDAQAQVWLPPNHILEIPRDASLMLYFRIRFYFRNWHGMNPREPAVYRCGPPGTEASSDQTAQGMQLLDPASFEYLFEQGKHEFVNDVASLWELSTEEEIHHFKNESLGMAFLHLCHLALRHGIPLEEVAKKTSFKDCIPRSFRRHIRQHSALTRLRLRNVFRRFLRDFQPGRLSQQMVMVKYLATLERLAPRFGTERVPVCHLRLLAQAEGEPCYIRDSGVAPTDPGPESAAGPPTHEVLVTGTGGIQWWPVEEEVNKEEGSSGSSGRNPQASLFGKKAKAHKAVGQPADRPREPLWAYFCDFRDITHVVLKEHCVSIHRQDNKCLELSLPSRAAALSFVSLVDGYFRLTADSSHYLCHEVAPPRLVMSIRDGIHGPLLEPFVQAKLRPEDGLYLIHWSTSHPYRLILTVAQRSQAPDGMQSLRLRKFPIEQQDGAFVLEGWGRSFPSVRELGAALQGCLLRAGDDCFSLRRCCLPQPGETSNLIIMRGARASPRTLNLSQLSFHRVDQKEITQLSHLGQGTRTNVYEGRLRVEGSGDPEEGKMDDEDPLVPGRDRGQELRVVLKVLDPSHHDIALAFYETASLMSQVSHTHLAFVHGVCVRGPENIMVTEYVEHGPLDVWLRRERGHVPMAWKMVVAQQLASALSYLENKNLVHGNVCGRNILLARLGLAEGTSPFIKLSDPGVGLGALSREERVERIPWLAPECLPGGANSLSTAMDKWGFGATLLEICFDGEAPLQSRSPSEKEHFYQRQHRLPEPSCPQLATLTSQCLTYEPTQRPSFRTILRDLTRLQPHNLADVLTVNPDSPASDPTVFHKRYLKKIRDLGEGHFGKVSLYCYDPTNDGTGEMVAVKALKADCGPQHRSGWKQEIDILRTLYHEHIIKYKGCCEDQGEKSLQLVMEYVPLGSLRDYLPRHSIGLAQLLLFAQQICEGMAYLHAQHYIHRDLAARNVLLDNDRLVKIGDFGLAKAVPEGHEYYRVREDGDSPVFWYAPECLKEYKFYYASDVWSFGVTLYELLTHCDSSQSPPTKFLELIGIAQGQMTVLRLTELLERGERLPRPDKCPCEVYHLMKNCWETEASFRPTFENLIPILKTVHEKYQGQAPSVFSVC
Method in brief: as §1

[1] = system: IL-2 stimulated pSTAT5 in Tall-1 T cells; experiment: Cellular JAK3 potency assay: inhibition of IL-2 stimulated pSTAT5 in Tall-1 T cells; assay type: cell-based, human; details: for IC50: Homo sapiens, TALL-1, IL-2 stimulated pSTAT5 in Tall-1 T cells, read-out: Tall-1 (pIC50) (converted)
Method in brief: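 In human Tall-1 T cells, IL-2 (300 ng/ml final, 30 min) drives STAT5 phosphorylation after a 1 h compound pretreatment. Lysates are assayed for pSTAT5 by AlphaLisa, and IC50 derived from signal versus concentration is expressed as pIC50.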

[2] = selectivity: difference of pKi JAK3 and pKi JAK1
[3] = selectivity JAK3 over JAK1, difference of pKi
[4] = IL-2 stimulated pSTAT5, Tall-1 T cells
[5] = IL-2 stimulated pSTAT5 in Tall-1 T cells

Compound	Ki (JAK3)	JAK3 (pKi)-JAK1 (pKi) (JAK3; [2])	Ki (JAK2)	Ki (JAK1)	Ki (Tyk2)	IC50 [1]	JAK 3 (pKi) (JAK3)	JAK3 (pKi)-JAK1 (pKi) (JAK3; [3])	JAK 2 (pKi) (JAK2)	JAK 1 (pKi) (JAK1)	Tyk 2 (pKi) (Tyk2)	Tall-1 (pIC50) [1, 4]	Tall-1 (pIC50) [1, 5]
CN(C)C/C=C/C(=O)N1CC(F)(COc2cc(-c3ccc(O)c(F)c3)nc3[nH]ncc23)C1 [Compound 3-53]	0.1 to 1 nM	A (a value of 3 or above)	> 100 nM	> 100 nM	> 100 nM	31.6 to 200 nM	–	–	–	–	–	–	–
C=CC(=O)N1CC(OCc2nc(-c3ccc(O)cc3)cc3[nH]ncc23)C1 [Compound 16-5]	–	–	–	–	–	–	A (a pKi value≥10 (Ki≤0.1 nM))	A (a value of 3 or above)	E (a pKi value of 7 or below (Ki of 100 nM or above))	E (a pKi value of 7 or below (Ki of 100 nM or above))	E (a pKi value of 7 or below (Ki of 100 nM or above))	A (a pIC50 value≥7.5 (IC50≤32 nM))	–
CN(C)C/C=C/C(=O)N1CC(C)(Oc2cc(-c3ccc(O)c(Cl)c3)cc3[nH]ncc23)C1 [Compound 5-18]	–	–	–	–	–	–	A (a pKi value≥10 (Ki≤0.1 nM))	A (a value of 3 or above)	E (a pKi value of 7 or below (Ki of 100 nM or above))	E (a pKi value of 7 or below (Ki of 100 nM or above))	E (a pKi value of 7 or below (Ki of 100 nM or above))	A (a pIC50 value≥7.5 (IC50≤32 nM))	–
C=CC(=O)N1CC[C@H](Oc2nc(-c3ccc(O)c(F)c3)cc3[nH]ncc23)C1 [Compound 1-27]	< 0.1 nM	A (a value of 3 or above)	10 to 100 nM	> 100 nM	> 100 nM	31.6 to 200 nM	–	–	–	–	–	–	–
C=CC(=O)N1CCC(COc2nc(-c3ccc(O)cc3)nc3[nH]ncc23)CC1 [Compound 14-12]	–	–	–	–	–	–	B (a pKi value between 9 and 10 (Ki between 1 nM and 0.1 nM))	A (a value of 3 or above)	E (a pKi value of 7 or below (Ki of 100 nM or above))	E (a pKi value of 7 or below (Ki of 100 nM or above))	E (a pKi value of 7 or below (Ki of 100 nM or above))	C (a pIC50 value between 6 and 6.7 (IC50 between 1 μM and 200 nM))	–
CN(C)C/C=C/C(=O)N1CC(C(C)(C)Oc2cc(-c3ccc(O)cc3)cc3[nH]ncc23)C1 [Compound 3-24]	–	A (a value of 3 or above)	–	–	–	–	B (a pKi value between 9 and 10 (Ki between 1 nM and 0.1 nM))	–	E (a pKi value of 7 or below (Ki of 100 nM or above))	E (a pKi value of 7 or below (Ki of 100 nM or above))	E (a pKi value of 7 or below (Ki of 100 nM or above))	–	B (a pIC50 value between 6.7 (included) and 7.5 (IC50 between 200 nM and 32 nM))
C=CC(=O)N1CC(F)(COc2cc(-c3ccc(O)c(Cl)c3)nc3[nH]ncc23)C1 [Compound 3-94]	–	A (a value of 3 or above)	–	–	–	–	A (a pKi value≥10 (Ki≤0.1 nM))	–	E (a pKi value of 7 or below (Ki of 100 nM or above))	E (a pKi value of 7 or below (Ki of 100 nM or above))	E (a pKi value of 7 or below (Ki of 100 nM or above))	–	A (a pIC50 value≥7.5 (IC50≤32 nM))
C=CC(=O)N1CC(C)(COc2cc(-c3ccc(O)cc3)nc3[nH]ncc23)C1 [Compound 3-58]	–	A (a value of 3 or above)	–	–	–	–	A (a pKi value≥10 (Ki≤0.1 nM))	–	E (a pKi value of 7 or below (Ki of 100 nM or above))	E (a pKi value of 7 or below (Ki of 100 nM or above))	E (a pKi value of 7 or below (Ki of 100 nM or above))	–	B (a pIC50 value between 6.7 (included) and 7.5 (IC50 between 200 nM and 32 nM))
C=CC(=O)N1CC(F)(COc2nc(-c3ccc(O)c(F)c3)cc3[nH]ncc23)C1 [Compound 3-49]	0.1 to 1 nM	B (a value of 2.3 to 3)	10 to 100 nM	> 100 nM	> 100 nM	< 31.6 nM	–	–	–	–	–	–	–
CN(C)C/C=C/C(=O)N1CC(F)(COc2cc(-c3ccc(O)cc3)cc3[nH]ncc23)C1 [Compound 3-5]	–	B (a value of 2.3 to 3)	–	–	–	–	B (a pKi value between 9 and 10 (Ki between 1 nM and 0.1 nM))	–	D (a pKi value between 7 and 8 (Ki between 100 nM and 10 nM))	D (a pKi value between 7 and 8 (Ki between 100 nM and 10 nM))	E (a pKi value of 7 or below (Ki of 100 nM or above))	–	A (a pIC50 value≥7.5 (IC50≤32 nM))
C=CC(=O)N1CCC(Oc2nc(-c3ccc(O)c(Cl)c3)cc3[nH]ncc23)CC1 [Compound 6-21]	–	–	–	–	–	–	B (a pKi value between 9 and 10 (Ki between 1 nM and 0.1 nM))	B (a value of 2.3 to 3)	D (a pKi value between 7 and 8 (Ki between 100 nM and 10 nM))	D (a pKi value between 7 and 8 (Ki between 100 nM and 10 nM))	E (a pKi value of 7 or below (Ki of 100 nM or above))	B (a pIC50 value between 6.7 (included) and 7.5 (IC50 between 200 nM and 32 nM))	–
COC1CN(C/C=C/C(=O)N2CC(COc3cc(-c4ccc(O)cc4)cc4[nH]ncc34)C2)C1 [Compound 3-132]	0.1 to 1 nM	A (a value of 3 or above)	> 100 nM	> 100 nM	> 100 nM	200 to 1000 nM	–	–	–	–	–	–	–
CN(C)C/C=C/C(=O)N1CC(F)(COc2cc(-c3ccc(O)c(Cl)c3)nc3[nH]ncc23)C1 [Compound 3-52]	–	A (a value of 3 or above)	–	–	–	–	B (a pKi value between 9 and 10 (Ki between 1 nM and 0.1 nM))	–	E (a pKi value of 7 or below (Ki of 100 nM or above))	E (a pKi value of 7 or below (Ki of 100 nM or above))	E (a pKi value of 7 or below (Ki of 100 nM or above))	–	B (a pIC50 value between 6.7 (included) and 7.5 (IC50 between 200 nM and 32 nM))
C=CC(=O)N1CCC(N(C)c2cc(-c3ccc(O)c(F)c3)cc3[nH]ncc23)CC1 [Compound 7-10]	–	–	–	–	–	–	B (a pKi value between 9 and 10 (Ki between 1 nM and 0.1 nM))	A (a value of 3 or above)	D (a pKi value between 7 and 8 (Ki between 100 nM and 10 nM))	E (a pKi value of 7 or below (Ki of 100 nM or above))	E (a pKi value of 7 or below (Ki of 100 nM or above))	B (a pIC50 value between 6.7 (included) and 7.5 (IC50 between 200 nM and 32 nM))	–
C=CC(=O)N1CC[C@H](Oc2nc(-c3ccc(O)cc3)cc3[nH]ncc23)C1 [Compound 1-8]	0.1 to 1 nM	A (a value of 3 or above)	> 100 nM	> 100 nM	> 100 nM	31.6 to 200 nM	–	–	–	–	–	–	–
C=CC(=O)N1CC(F)(COc2nc(-c3ccc(O)c(Cl)c3)nc3[nH]ncc23)C1 [Compound 3-92]	< 0.1 nM	A (a value of 3 or above)	> 100 nM	> 100 nM	> 100 nM	< 31.6 nM	–	–	–	–	–	–	–
